# According to patent US10590101B2, “Benzo-N-hydroxy amide compounds having antitumor activity” (ITALFARMACO SPA, priority 2016, dated 2020):
# Where two headings read alike, the source gives them in different places.
# Key:
# [1] = test system: Colon cancer stem cells (CSC) CSC1; assay: Cytotoxicity in vitro, colon cancer stem cells CSC1 (CellTiter-Glo); type: cell-based; conditions: 72 h incubation
# Procedure: (§1) The cytotoxicity activity was evaluated as follows: • Pre-B leukemia cell line 697 was seeded at 2×10^5 c/well; • Colon carcinoma cell lines HCT116, HT29 and COLO2015 were seeded at 4×10^3, 4×10^3 and 10×10^3 c/well respectively; • Primary human kidney cells were seeded at 1.5×10^3 and 6.5×10^3 in two separate experiments; • Human PBMC were seeded at 5×10^5 c/well; • Colon cancer stem cells (CSC) were seeded at 3×10^3;
# (§2) Testing compounds were added after 24 h and incubated for 72 h (48 h for 697 cell line). The concentrations of molecules ranged from 10000 nM to 1.5 nM (10000 to 1 nM for 697 cell line). The cytotoxic activity of compounds was evaluated using the CellTiter 96® Aqueous One Solution Cell Proliferation Assay (Promega) which measures the functionality of mitochondria according to manufacturer's instructions. For Colon cancer stem cells viability was determined with CellTiter-Glo Luminescent cell viability assay (Promega).
# (§3) The activity of compounds at any dose is calculated as percentage of inhibition versus vehicle-treated control (=0). The IC50s are extrapolated from the inhibition dose/response curve using GraphPad Prism program.
# HCT116 cells = assay: Cytotoxicity in vitro, HCT116 (CellTiter 96 Aqueous One Solution); type: cell-based, human; conditions: for IC50: Homo sapiens, HCT-116, 72 h incubation
# Description: The compounds of the present invention are small molecules of formula (I), characterised by the presence of a metal chelating moiety, the benzohydroxamate, an α-aminoacidic N-acylated central core and an α,β-unsaturation at the acyl-moiety. This particular structural feature seems responsible for the high inhibitory activity on cancer stem cell lines and on HCT116 cells (ATCC CCL-247), a human colorectal carcinoma cell line widely used in cancer biology both in vitro and in vivo (Botchkina Cancer Genom Proteom 6, 19-30, 2009; Yeung PNAS 107, 3722-3727, 2010).
# as §1, §2, §3
# [2] = test system: Pre-B leukemia cell line 697; assay: Primary cytotoxicity screening, 697 cell line (CellTiter 96); type: cell-based; conditions: Table 1; 48 h incubation; read-out: CyTox697
# Procedure: as §1, §2, §3
# Human PBMC = assay: Cytotoxicity in vitro, PBMC from healthy donors (CellTiter 96); type: cell-based
# Procedure: as §1, §2
# (§4) The compound cytotoxicity was confirmed by further assays on two other colon cancer cell lines HT29 (ATCC HTB38) and Colo205 (ATCC CCL222) and on colon cancer stem cells (CSCs) (see table 2 and 3). It is worth noting that cytotoxic activity toward human primary kidney cells and peripheral blood mononuclear cells (PBMC) isolated from healthy donors was lower compared to tumor cells cytotoxicity (see table 4).
# as §3
# [3] = test system: HT29 colon cancer cell line; assay: Cytotoxicity in vitro, HT29 (CellTiter 96); type: cell-based; conditions: Homo sapiens, HT-29; 72 h incubation; read-out: HT29 IC 50
# Procedure: as §1, §2, §4, §3
# HCT116 xenograft = assay: Antitumor activity in vivo, sc xenograft model of colon cancer; set-up: species or system CD1 nude female mice; conditions: ip
# Procedure: Female CD-1 nude mice, 5 weeks of age and 20 to 22 g of weight, were housed in the animal house of the Italfarmaco Research Centre. Mice were maintained in micro isolator cages and supplied with sterile food and water under standard conditions.
# Xenografts were generated by sc injection of 7×10^6 HCT116 cells in the right flank of the animals.
# Tumor sizes were determined by caliper measurements and tumor volumes were calculated according to the following formula: Tumor volume (mm^3)=(w2×1)/2 where “w” is the width and “l” is the length of the carcinoma in mm.
# Tumor growth was followed by volume measurement three times a week.
# Tumor mass reached a measurable size three weeks after transplantation, at this time, treatments began.
# Two reference compounds were also used in the experiment. The cinnamic hydroxamic acid panobinostat and 5-FU. The compounds were administered at the MTD according to previous experiments or as described in the literature.
# [4] = test system: Colon cancer stem cells (CSC) CSC2; assay: Cytotoxicity in vitro, colon cancer stem cells CSC2 (CellTiter-Glo); type: cell-based; conditions: 72 h incubation; read-out: CSC2 IC 50
# Procedure: as §1, §2, §3
# [5] = test system: Primary human kidney cells; assay: Cytotoxicity in vitro, primary renal cells (CellTiter 96); type: cell-based
# Procedure: as §1, §2, §4, §3
# [6] = test system: COLO205 colon cancer cell line; assay: Cytotoxicity in vitro, COLO205 (CellTiter 96); type: cell-based; conditions: Homo sapiens, COLO 205; 72 h incubation; read-out: COLO205 IC 50
# Procedure: as §1, §2, §4, §3
# [7] = test system: Colon cancer stem cells (CSC) CSC3; assay: Cytotoxicity in vitro, colon cancer stem cells CSC3 (CellTiter-Glo); type: cell-based; conditions: 72 h incubation; read-out: CSC3 IC 50
# Procedure: as §1, §2, §3
# [8] = Force degradation test (chemical stability); type: physicochemical
# [9] = PBMC 1, 72 h incubation, read-out: PBMC 1 IC 50
# [10] = PBMC 2, 72 h incubation, read-out: PBMC 2 IC 50
# [11] = Table 2, read-out: HCT-116 IC 50
# [12] = Renal.ep1, 72 h incubation, read-out: Renal.ep1 IC 50
# [13] = Renal.ep2, 72 h incubation, read-out: Renal.ep2 IC 50
SMILES,"IC50 ([1]; Table 1, read-out: CSC1)","IC50 (HCT116 cells; Table 1, read-out: HCT116)",IC50 [2],further results
COc1ccc(C[C@H](NC(=O)CCc2ccccc2)C(=O)Nc2ccc(C(=O)NO)cc2)cc1,136 nM,431 nM,53 nM,
O=C(CCc1ccccc1)N[C@@H](Cc1ccccc1)C(=O)Nc1ccc(C(=O)NO)cc1,332 nM,806 nM,770 nM,
O=C(NO)c1ccc(NC(=O)[C@H](Cc2ccccc2)NC(=O)c2ccc3c(c2)OCO3)cc1,,79 nM,18 nM,
"O=C(/C=C/c1ccccc1)N[C@@H](Cc1ccccc1)C(=O)Nc1ccc(C(=O)NO)cc1 [Compound 5D, (2S)—N-[4-(hydroxycarbamoyl)phenyl]-3-phenyl-2-[[(E)-3-phenyl-2-enoyl]amino]propanamide]",,,,"IC50 (Human PBMC; [9]): 147 nM; IC50 (Human PBMC; [10]): 595 nM; IC50 [3]: 197 nM; IC50 ([1]; Table 3, read-out: CSC1 IC 50): 26 nM; % inhib tumor vs CTRL after 44 days of treatment (HCT116 xenograft; 5 mg/kg): 46%; IC50 (HCT116 cells; [11]): 14 nM; IC50 [4]: 102 nM; IC50 [5, 12]: 1060 nM; IC50 [5, 13]: 511 nM; IC50 [6]: 221 nM; IC50 [7]: 230 nM"
COc1ccc(C[C@H](NC(=O)Cc2ccccc2)C(=O)Nc2ccc(C(=O)NO)cc2)cc1,160 nM,316 nM,72 nM,
"COc1ccc(C[C@H](NC(=O)/C=C/c2ccccc2)C(=O)Nc2ccc(C(=O)NO)cc2)cc1 [Compound 2D, (2S)—N-[4-(hydroxycarbamoyl)phenyl]-3-(4-methoxyphenyl)-2-[[(E)-3-phenylprop-2-enoyl]amino]propanamide]",,,,"IC50 (Human PBMC; [9]): 89 nM; IC50 (Human PBMC; [10]): 42 nM; IC50 [3]: 61 nM; IC50 ([1]; Table 3, read-out: CSC1 IC 50): 50 nM; % inhib tumor vs CTRL after 44 days of treatment (HCT116 xenograft; 1 mg/kg): 33%; IC50 (HCT116 cells; [11]): 14 nM; IC50 [4]: 100 nM; IC50 [6]: 73 nM; IC50 [7]: 70 nM"
O=C(NO)c1ccc(NC(=O)[C@H](Cc2ccccc2)NC(=O)c2ccccc2)cc1,96 nM,184 nM,105 nM,
COc1ccc(C[C@H](NC(=O)/C=C/c2ccccc2)C(=O)Nc2ccc(C(=O)NO)cc2)cc1 [drawing 50],40 nM,13 nM,22 nM,
"O=C(/C=C\c1ccccc1)N[C@@H](Cc1ccccc1)C(=O)Nc1ccc(C(=O)NO)cc1 [Compound 5DZ, (S,Z)—N-hydroxy-4-(3-phenyl-2-(3-phenylacrylamido)propanamido)benzamide]",,,,stability at high temperatures ([8]; 15 days at 80° C.): little less stable; stability at low pH ([8]; 15 days at pH 2): definitely less stable; chemical stability compared with the trans ([8]; cis-form vs trans): chemically less stable; potency on HCT116 cells compared with the trans-form (HCT116 cells; cis-form vs trans-form): less potent
COc1ccc(C[C@H](NC(=O)/C=C/c2ccc3c(c2)OCO3)C(=O)Nc2ccc(C(=O)NO)cc2)cc1 [drawing 46],192 nM,18 nM,3 nM,
COc1ccc(C[C@H](NC(=O)c2ccc3c(c2)OCO3)C(=O)Nc2ccc(C(=O)NO)cc2)cc1,24 nM,24 nM,21 nM,
"O=C(/C=C/c1ccc2c(c1)OCO2)N[C@@H](Cc1ccccc1)C(=O)Nc1ccc(C(=O)NO)cc1 [Compound 4D, (2S)-2-[[(E)-3-(1,3-benzodioxol-5-yl)prop-2-enoyl]amino]-N-[4-(hydroxycarbamoyl)phenyl]-3-phenyl-propanamide]",,,,"IC50 (Human PBMC; [9]): 359 nM; IC50 (Human PBMC; [10]): 601 nM; IC50 [3]: 215 nM; IC50 ([1]; Table 3, read-out: CSC1 IC 50): 13 nM; % inhib tumor vs CTRL after 44 days of treatment (HCT116 xenograft; 5 mg/kg): 54%; % inhib tumor vs CTRL after 44 days of treatment (HCT116 xenograft; 10 mg/kg): 39%; IC50 (HCT116 cells; [11]): 19 nM; IC50 [4]: 102 nM; IC50 [5, 12]: 778 nM; IC50 [6]: 201 nM; IC50 [7]: 91 nM"
O=C(Cc1ccc2c(c1)OCO2)N[C@@H](Cc1ccccc1)C(=O)Nc1ccc(C(=O)NO)cc1,208 nM,1070 nM,127 nM,
O=C(/C=C/c1ccccc1)N[C@@H](Cc1ccccc1)C(=O)Nc1ccc(C(=O)NO)cc1 [drawing 59],73 nM,10 nM,45 nM,
COc1ccc(C[C@H](NC(=O)COc2ccccc2)C(=O)Nc2ccc(C(=O)NO)cc2)cc1,,194 nM,44 nM,
"O=c1[nH]cc(F)c(=O)[nH]1 [Compound 5-FU, 5-FU, reference compound]",,,,"% inhib tumor vs CTRL after 44 days of treatment (HCT116 xenograft; 10 mg/kg): 36%; % inhib tumor vs CTRL after 44 days of treatment (HCT116 xenograft; 70 mg/kg, once a week): 61%"
COc1ccc(C[C@H](NC(=O)c2ccccc2)C(=O)Nc2ccc(C(=O)NO)cc2)cc1,48 nM,76 nM,54 nM,
"COc1ccc(C[C@H](NC(=O)/C=C/c2ccc3c(c2)OCO3)C(=O)Nc2ccc(C(=O)NO)cc2)cc1 [Compound 1D, (2S)-2-[[(E)-3-(1,3-benzodioxol-5-yl)prop-2-enoyl]amino]-N-[4-(hydroxycarbamoyl)phenyl]-3-(4-methoxyphenyl)propanamide]",,,,"IC50 (Human PBMC; [9]): 80 nM; IC50 (Human PBMC; [10]): 152 nM; IC50 [3]: 157 nM; IC50 ([1]; Table 3, read-out: CSC1 IC 50): 19 nM; % inhib tumor vs CTRL after 44 days of treatment (HCT116 xenograft; 0.5 mg/kg): 23%; % inhib tumor vs CTRL after 44 days of treatment (HCT116 xenograft; 1 mg/kg): 22%; IC50 (HCT116 cells; [11]): 18 nM; IC50 [4]: 114 nM; IC50 [5, 12]: 462 nM; IC50 [5, 13]: 321 nM; IC50 [6]: 146 nM; IC50 [7]: 85 nM"
COc1ccc(C[C@H](NC(=O)CCc2ccc3c(c2)OCO3)C(=O)Nc2ccc(C(=O)NO)cc2)cc1,400 nM,702 nM,496 nM,
"Cc1[nH]c2ccccc2c1CCNCc1ccc(/C=C/C(=O)NO)cc1 [Panobinostat, panobinostat, reference compound]",,,,% inhib tumor vs CTRL after 44 days of treatment (HCT116 xenograft; 1 mg/kg): 34%
O=C(COc1ccccc1)N[C@@H](Cc1ccccc1)C(=O)Nc1ccc(C(=O)NO)cc1,424 nM,466 nM,59 nM,
O=C(/C=C/c1ccc2c(c1)OCO2)N[C@@H](Cc1ccccc1)C(=O)Nc1ccc(C(=O)NO)cc1 [drawing 55],37 nM,11 nM,85 nM,
O=C(CCc1ccc2c(c1)OCO2)N[C@@H](Cc1ccccc1)C(=O)Nc1ccc(C(=O)NO)cc1,336 nM,900 nM,203 nM,
O=C(Cc1ccccc1)N[C@@H](Cc1ccccc1)C(=O)Nc1ccc(C(=O)NO)cc1,192 nM,237 nM,90 nM,
COc1ccc(C[C@H](NC(=O)Cc2ccc3c(c2)OCO3)C(=O)Nc2ccc(C(=O)NO)cc2)cc1,280 nM,554 nM,168 nM,
